In paper PMC6452631 (Journal of medicinal chemistry, 2017):
pEC50: −log10 of the molar value. One block for each compound: values may come before it. Peptide text beside a SMILES is read from it. * marks the point of attachment. Cbz = O=C(OCc1ccccc1)*; Acryloyl = C=CC(=O)*

Tests used:
gplTG2 = details: cited from earlier work; for K1 values: gplTG2, in words
hTG2 [1] = target: T1, hTG2 (Homo sapiens, UniProt P21980); experiment: In vitro GTP binding assay; details: inhibitor at 2KI, 30 min, 25 °C; 3 μM BODIPY GTP-γ-S
T1 sequence (P21980 1-687): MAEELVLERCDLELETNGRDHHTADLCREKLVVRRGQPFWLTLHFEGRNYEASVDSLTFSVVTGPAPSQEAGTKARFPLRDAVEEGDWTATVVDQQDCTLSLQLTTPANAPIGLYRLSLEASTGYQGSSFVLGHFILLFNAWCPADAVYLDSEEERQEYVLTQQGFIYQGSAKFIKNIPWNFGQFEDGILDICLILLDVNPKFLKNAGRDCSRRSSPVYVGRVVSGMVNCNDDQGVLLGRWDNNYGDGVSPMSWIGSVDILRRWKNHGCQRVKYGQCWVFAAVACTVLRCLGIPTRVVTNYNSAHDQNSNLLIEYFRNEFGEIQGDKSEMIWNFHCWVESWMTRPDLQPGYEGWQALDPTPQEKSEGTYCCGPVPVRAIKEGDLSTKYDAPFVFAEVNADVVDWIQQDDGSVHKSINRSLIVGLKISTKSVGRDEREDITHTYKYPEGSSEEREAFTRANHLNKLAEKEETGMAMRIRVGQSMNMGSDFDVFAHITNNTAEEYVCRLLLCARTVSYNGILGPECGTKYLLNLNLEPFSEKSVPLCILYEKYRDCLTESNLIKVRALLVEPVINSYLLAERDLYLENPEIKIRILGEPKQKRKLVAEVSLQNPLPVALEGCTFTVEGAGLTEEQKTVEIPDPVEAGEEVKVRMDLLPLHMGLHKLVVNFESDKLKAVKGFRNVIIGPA

hTG2 [2] = target: T1, hTG2; details: pH 6.5
[3] = tested on: epidermal cancer stem (ECS) cells (SCC-13); experiment: Cell invasion assay; format: cell-based, human
[4] = tested on: epidermal cancer stem (ECS) cells; details: cited from earlier work
[5] = tested on: mouse xenograft tumors initiated by injection of cancer stem cells; details: intraperitoneal injection, 20 mg/kg; cited from earlier work
hTG2 [6] = target: T1, hTG2; experiment: Colorimetric transamidase activity assay
hTG2 [7] = target: T1, hTG2; experiment: Inhibition irreversibility; format: biochemical; details: compared to uninhibited hTG2

SMILES: C=CC(=O)NCCCC[C@H](NC(=O)OCc1ccccc1)C(=O)NCC(=O)O [Compound 2, (S)-2-(6-Acrylamido-2-(((benzyloxy)carbonyl)amino)-hexanamido)acetic Acid] (Cbz-Lys(Acryloyl)-Gly-OH)
K1 values (gplTG2): high nanomolar range
efficiency constants (kinact/KI) (gplTG2; gplTG2): 10^6 M^−1 min^−1

SMILES: C=CC(=O)NCCCC[C@H](NC(=O)OCc1ccccc1)C(N)=O [Compound 4, (S)-Benzyl-(6-acrylamido-1-amino-1-oxohexan-2-yl)carbamate]
GTP binding ability of hTG2 after incubation with inhibitor (hTG2 [1]): able to abolish GTP binding

SMILES: C=CC(=O)NCCCC[C@H](NC(=O)OCc1ccccc1)C(=O)O [Compound 1, (S)-6-Acrylamido-2-(((benzyloxy)carbonyl)amino)hexanoic Acid]
K1 values (gplTG2): high nanomolar range

SMILES: C=CC(=O)NCCCC[C@H](NC(=O)OCc1ccccc1)C(=O)N1CCOCC1 [Compound 59]
kinact (hTG2 [2]): 0.0245 s⁻¹

SMILES: C=CC(=O)NCCCC[C@H](NC(=O)OCc1ccccc1)C(=O)NCCOCCOCCNS(=O)(=O)c1cccc2c(N(C)C)cccc12 [Compound 3, (S)-Benzyl-(1-((5-(dimethylamino)naphthalene)-1-sulfonamido)-10,17-dioxo-3,6-dioxa-9,16-diazanonadec-18-en-11-yl)carbamate]
pEC50 ([3]; Homo sapiens, SCC-13, 18 h, read-out: EC50, inhibition of ECS cell invasion): < 4.70
kinact (gplTG2; gplTG2): 0.483 min⁻¹
ECS cell proliferation and survival ([4]; 20 μM): reduced ECS cell proliferation and survival
effect in TG2 knockout ECS cells ([4]; TG2 knockout ECS cells): no effect
growth of mouse xenograft tumors [5]: reduced the growth
increase in overall efficiency (kinact/KI), hTG2 versus gplTG2 (hTG2 [6]; hTG2 compared to gplTG2): 5 fold

SMILES: NC(=O)CI [iodoacetamide, reference compound]
GTP binding ability of hTG2 after incubation with inhibitor (hTG2 [1]): did not perturb its GTP-binding ability
inhibition of hTG2 acyltransferase activity (hTG2 [6]; in words): irreversible inhibition

Continued, in another order:

kinact less than that of 13 (hTG2 [6]; hTG2): more than 3 fold
SMILES: C=CC(=O)NCCCC[C@H](NC(=O)OCc1ccccc1)C(=O)N1CCN(S(=O)(=O)c2cccc3ccccc23)CC1 [Compound 30, (S)-Benzyl 6-Acrylamido-1-(4-(naphthalen-1-ylsulfonyl)piperazin-1-yl)-1-oxohexan-2-yl-carbamate]

GTP binding ability of hTG2 after incubation with inhibitor (hTG2 [1]): abolishing GTP binding nearly completely
recovered hTG2 activity after filtration (10 kDa cutoff) and dilution (hTG2 [7]): no recovered activity
kinact/KI (hTG2 [6]): > 1670 M⁻¹ s⁻¹
reduction in the inhibition binding constant compared to 3 (hTG2 [6]; hTG2): greater than 2 fold
SMILES: C=CC(=O)NCCCC[C@H](NC(=O)OCc1ccccc1)C(=O)N1CCN(S(=O)(=O)c2cccc3c(N(C)C)cccc23)CC1 [Compound 13, (S)-Benzyl (6-Acrylamido-1-(4-((5-(dimethylamino)naphthalen-1-yl)sulfonyl)piperazin-1-yl)-1-oxohexan-2-yl)carbamate]
Hill slope ([3]; three-parameter sigmoidal fit of invasion data, maximum fixed at 100): 1.16 ± 0.13

GTP binding ability of hTG2 after incubation with inhibitor (hTG2 [1]): abolishing GTP binding nearly completely
kinact/KI (hTG2 [6]): > 1670 M⁻¹ s⁻¹
SMILES: C=CC(=O)NCCCC[C@H](NC(=O)OCc1ccccc1)C(=O)N1CCN(C(=O)c2cccc3ccccc23)CC1 [Compound 49, (S)-Benzyl (1-(4-(1-Naphthoyl)piperazin-1-yl)-6-acrylamido-1-ox-ohexan-2-yl)carbamate]
